Read-outs that look alike come from different tables or passages of the source.
Key:
[1] = biological target: T1, ATM kinase (Homo sapiens, UniProt Q13315); assay: In vitro ATM kinase assay (Cisbio HTRF, p53 substrate); type: biochemical; settings: 30 μM ATP; for inhibition at 0.0001 µM: Conc. 0.1 nM
T1 construct: purchased Eurofins 14-933
Method: Determination of the Inhibitory Effect In Vitro of the Compound of Example 2 and its Analogues on ATM Using In Vitro ATM Kinase Assay
ATM enzymatic activity was measured using Cisbio's HTRF reagent in a 384-well plate (Greiner, #784075). […] The mixtures were centrifuged at 1000 rpm for 1 minute, and reacted in dark for 30 minutes at room temperature. Then, 5 μL of EDTA termination solution (250 mm) was added to terminate the reaction. After 5 μL of detection mixture (Anti-phospho-p53 (ser15)-K (Cisbio, #61P08KAE, 0.084 ng/μL) and Anti-GST-d2 (Cisbio, #61GSTDLA, 5.00 ng/μL)) was finally added to each well, the mixtures were cultured at room temperature over night, and the fluorescence values at 665 nm and 615 nm were measured on Envision 2104. The final concentration of each reagent of the experiment was as follows: 12.5 mM HEPES (pH8.0), 0.5% glycerol, 0.005% Brij-35, 0.625 mM DTT, 0.0125% BSA, 15 nM p53, 0.25 ng/μL ATM, 30 μM ATP, 2.5 mM Mg(AcO)2, 2.5 mM MnCl2, 62.5 mM EDTA, 0.021 ng/μL Anti-phospho-p53, 1.25 ng/μL Anti-GST-d2.
Relative fluorescence ratio was calculated: Ratio665 nm/615 nm−Ratiobackground, and inhibition rate %=(1−(relative fluorescence ratio of test compound well−relative fluorescence ratio of positive control well)/(relative fluorescence ratio of negative control well−relative fluorescence ratio of positive control well))×100 was calculated. Data were analyzed using GraphPad Prism6.0 and fitted using the curve equation: Y=Bottom+(Top−Bottom)/(1+10^((Log IC50−X)*HillSlope)), and IC50 values were calculated.

[2] = tested on: human colon cancer cell SW620; assay: MTT proliferation assay in combination with CPT-11, SW620; type: cell-based; settings: medium containing 205 nM CPT-11, 5 days, read-out: IC50, inhibition of proliferation of SW620 combined with CPT-11
Method: Determination of the Inhibitory Effect of the Compound of Example 2 and its Analogues in Combination with CPT-11 on the Proliferation of Human Colon Cancer Cell SW620 Using MTT Assay
The human colon cancer cells SW620 were cultured in RPMI 1640 medium with 10% FBS and used at about 90% confluence for experiments. The SW620 cells were digested with trypsinase and centrifuged at 800 rpm for 5 minutes. The supernatant was discarded and the cell pellets were resuspended with fresh medium (RPMI 1640+10% FBS). The cells were seeded into 96-well cell culture plates with appropriate cell density and incubated at 37° C. overnight in a 5% CO2 incubator. […] The first concentration was 1 μM or 0.333 μM, the last concentration was DMSO negative control (0 μM). 5 μL of solutions of each concentration was added to 120 μL of medium (a 25 times dilution) and mixed by shaking. The cells were cultured overnight and the culture medium was replaced with 195 μL/well of fresh medium containing 205 nM CPT-11 and 5 μL/well of medium containing the test compound (the final concentration of DMSO was 1%). The culture plates were returned to incubator and cultured at 37° C., 5% CO2 for 5 days. At the day of experiment, medium was discarded and replaced with 100 μL of fresh serum-free DMEM medium containing MTT (0.5 mg/mL), and the culture was continued. 4 hours later, the medium was discarded and replaced with 100 μL/well of DMSO, the plate was shaken for 10 minutes in dark and the absorbance was measured at the wavelengths of 552 and 690 nm using a multi-function plate reader. Data were analyzed by Graph Pad Prism 6.0. The inhibitory effects of compounds on cell proliferation were plotted based on cell viability vs. the logarithm of compound concentration. Cell viability %=(ODcompound−ODbackground)/(ODDMSO−ODbackground)×100.
Table 3 summarizes the inhibitory effect data (IC50) of some compounds combined with CPT-11 on the proliferation of human colon cancer cell SW620.

[3] = tested on: human breast cancer cell MDA-MB-468; assay: MTT proliferation assay, MDA-MB-468; type: cell-based; settings: 7 days, single agent, read-out: IC50, inhibition of proliferation of MDA-MB-468
Method: Determination of the Inhibitory Effect of the Compound of Example 2 and its Analogues on the Proliferation of Human Breast Cancer Cell MDA-MB-468 Using MTT Assay
The human breast cancer cells MDA-MB-468 were cultured in RPMI 1640 medium with 10% FBS and used at 90% confluence. The MDA-IVB-468 cells were digested with trypsinase and centrifuged at 800 rpm for 5 minutes. The supernatant was discarded and the cell pellets were resuspended with fresh medium and counted. Cells were seeded to 96-well cell culture plates with appropriate cell density and incubated overnight at 37° C., 5% CO2. […] 5 μL of solutions of each concentration was added to 120 μL of medium (diluted by 25 times) and mixed by shaking. The culture medium of cells cultured overnight was discarded and replaced with 195 μL/well of fresh medium (RPMI 1640+5% FBS) and 5 μL/well of diluted medium containing the test compound of corresponding concentrations (the final concentration of DMSO was 1%), and the culture plate was then returned to 5% CO2 incubator at 37° C. for 7 days (on the fourth day, dressing was changed once and culture was continued). On the day of experiment, culture medium was discarded and replaced with 100 μL/well of fresh serum-free DMEM medium containing MTT (0.5 mg/mL), and the culture was continued. After 4 hours, medium was discarded and replaced with 100 μL/well of DMSO, the plates were shaken for 10 minutes in darkness and the absorbance was measured at the wavelengths of 552 and 693 nm using a multi-function plate reader. Graph Pad Prism 6.0 was used to analyze the data. The inhibitory effects of compounds on cell proliferation were plotted based on cell viability vs. the logarithm of compound concentration. Cell viability %=(ODcompound−ODbackground)/(ODDMSO−ODbackground)×100.
Table 4 summarizes the inhibitory effect data (IC50) of some compounds on the proliferation of human breast cancer cell MDA-MB-468.

[4] = Conc. 1 nM, read-out: Inh % (inhibitory effect on ATM kinase activity)
[5] = Conc. 10 nM, read-out: Inh % (inhibitory effect on ATM kinase activity)
[6] = Homo sapiens, MDA-MB-468, 168 h
[7] = read-out: Inh % (inhibitory effect on ATM kinase activity)

T1 sequence (Q13315 whole entry): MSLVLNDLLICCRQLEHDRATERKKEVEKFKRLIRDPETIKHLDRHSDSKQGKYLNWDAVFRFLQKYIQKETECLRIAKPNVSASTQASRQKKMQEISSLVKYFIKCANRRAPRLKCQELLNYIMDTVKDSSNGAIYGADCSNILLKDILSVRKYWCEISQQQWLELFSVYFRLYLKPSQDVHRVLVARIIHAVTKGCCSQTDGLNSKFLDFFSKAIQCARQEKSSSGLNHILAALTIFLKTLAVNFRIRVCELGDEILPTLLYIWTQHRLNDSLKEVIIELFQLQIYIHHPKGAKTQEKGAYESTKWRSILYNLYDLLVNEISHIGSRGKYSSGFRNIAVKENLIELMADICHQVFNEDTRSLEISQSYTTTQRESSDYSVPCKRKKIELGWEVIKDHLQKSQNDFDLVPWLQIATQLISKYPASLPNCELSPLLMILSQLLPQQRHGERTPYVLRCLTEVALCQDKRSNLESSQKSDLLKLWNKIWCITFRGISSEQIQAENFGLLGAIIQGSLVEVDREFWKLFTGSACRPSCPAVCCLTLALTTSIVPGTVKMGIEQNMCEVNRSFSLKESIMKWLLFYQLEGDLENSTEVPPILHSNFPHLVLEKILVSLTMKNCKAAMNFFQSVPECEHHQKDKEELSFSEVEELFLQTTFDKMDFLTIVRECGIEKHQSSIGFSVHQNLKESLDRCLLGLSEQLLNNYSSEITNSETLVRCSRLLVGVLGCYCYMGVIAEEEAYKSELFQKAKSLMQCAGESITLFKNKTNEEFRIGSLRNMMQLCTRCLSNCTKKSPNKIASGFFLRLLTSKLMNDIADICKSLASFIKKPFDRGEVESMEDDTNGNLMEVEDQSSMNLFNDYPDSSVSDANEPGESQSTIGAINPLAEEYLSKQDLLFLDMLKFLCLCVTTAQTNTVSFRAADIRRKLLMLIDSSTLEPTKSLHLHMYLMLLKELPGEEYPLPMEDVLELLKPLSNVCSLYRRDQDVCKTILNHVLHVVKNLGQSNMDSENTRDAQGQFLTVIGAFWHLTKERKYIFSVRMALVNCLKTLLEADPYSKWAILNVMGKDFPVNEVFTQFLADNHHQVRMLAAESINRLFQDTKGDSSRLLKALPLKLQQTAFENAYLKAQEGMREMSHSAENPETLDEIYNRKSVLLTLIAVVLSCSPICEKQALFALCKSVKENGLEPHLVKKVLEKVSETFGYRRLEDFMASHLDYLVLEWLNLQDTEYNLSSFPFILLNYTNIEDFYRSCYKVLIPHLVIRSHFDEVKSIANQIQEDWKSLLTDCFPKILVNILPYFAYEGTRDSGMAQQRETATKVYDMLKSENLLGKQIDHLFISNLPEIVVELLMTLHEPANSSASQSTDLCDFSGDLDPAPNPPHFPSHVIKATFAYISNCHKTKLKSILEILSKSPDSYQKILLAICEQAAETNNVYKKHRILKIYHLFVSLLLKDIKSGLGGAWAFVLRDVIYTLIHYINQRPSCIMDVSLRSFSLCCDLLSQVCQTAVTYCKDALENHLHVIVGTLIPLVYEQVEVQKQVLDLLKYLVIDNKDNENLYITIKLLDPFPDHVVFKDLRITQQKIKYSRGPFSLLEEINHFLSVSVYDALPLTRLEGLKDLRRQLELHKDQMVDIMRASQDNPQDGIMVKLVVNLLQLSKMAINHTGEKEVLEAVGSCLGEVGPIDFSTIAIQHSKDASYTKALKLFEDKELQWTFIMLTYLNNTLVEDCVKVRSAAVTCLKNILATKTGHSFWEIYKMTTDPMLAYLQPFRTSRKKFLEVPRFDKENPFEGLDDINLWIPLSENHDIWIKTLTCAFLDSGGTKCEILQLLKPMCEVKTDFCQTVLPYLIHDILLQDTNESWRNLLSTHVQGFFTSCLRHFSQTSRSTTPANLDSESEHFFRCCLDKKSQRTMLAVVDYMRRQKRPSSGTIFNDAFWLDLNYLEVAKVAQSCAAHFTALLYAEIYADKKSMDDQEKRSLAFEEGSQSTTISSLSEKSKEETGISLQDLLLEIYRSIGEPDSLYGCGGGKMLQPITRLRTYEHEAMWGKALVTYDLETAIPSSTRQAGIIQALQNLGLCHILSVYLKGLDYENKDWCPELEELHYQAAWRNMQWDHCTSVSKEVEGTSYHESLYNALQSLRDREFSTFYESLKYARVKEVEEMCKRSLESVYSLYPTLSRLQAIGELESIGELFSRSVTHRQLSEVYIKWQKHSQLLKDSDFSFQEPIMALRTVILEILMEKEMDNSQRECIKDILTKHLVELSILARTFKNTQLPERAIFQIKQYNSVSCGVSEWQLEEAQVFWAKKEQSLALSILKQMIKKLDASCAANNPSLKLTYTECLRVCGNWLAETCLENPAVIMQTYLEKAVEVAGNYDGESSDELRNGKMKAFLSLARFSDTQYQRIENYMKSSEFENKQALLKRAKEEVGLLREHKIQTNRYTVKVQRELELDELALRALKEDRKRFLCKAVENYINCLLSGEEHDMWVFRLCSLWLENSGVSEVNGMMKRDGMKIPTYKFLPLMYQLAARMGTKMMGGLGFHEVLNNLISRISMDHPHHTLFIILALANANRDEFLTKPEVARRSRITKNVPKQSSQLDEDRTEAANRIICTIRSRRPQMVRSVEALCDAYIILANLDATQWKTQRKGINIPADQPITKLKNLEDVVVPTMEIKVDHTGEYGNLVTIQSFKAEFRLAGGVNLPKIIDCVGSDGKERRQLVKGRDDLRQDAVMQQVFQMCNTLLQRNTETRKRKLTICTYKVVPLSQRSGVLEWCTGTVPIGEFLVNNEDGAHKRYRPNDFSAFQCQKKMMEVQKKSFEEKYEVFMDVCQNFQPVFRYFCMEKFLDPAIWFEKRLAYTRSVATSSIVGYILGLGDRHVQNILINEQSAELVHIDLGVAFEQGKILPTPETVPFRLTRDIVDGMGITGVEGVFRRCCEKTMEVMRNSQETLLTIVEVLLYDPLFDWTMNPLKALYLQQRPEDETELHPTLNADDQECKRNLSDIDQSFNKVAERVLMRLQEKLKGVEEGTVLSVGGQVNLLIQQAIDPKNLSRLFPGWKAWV

SMILES	IC50 [2] [nM]	inhibition at 0.01 µM [1, 5] [%]	IC50 [3, 6] [nM]	further results
CN(C)CCCOc1ccc(-c2ccc3ncc4c(c3c2)n(C2CCOCC2)c(=O)n4C)cn1 [AZD0156, reference compound]	9.8	–	–	Inh % (inhibitory effect on ATM kinase activity) ([1]; Conc. 1 nM): 90%; Inh % (inhibitory effect on ATM kinase activity) ([1]; Conc. 10 nM): 95%; Inh % (inhibitory effect on ATM kinase activity) ([1]; Conc. 100 nM): 100%; IC50 [3]: 9.87 nM
CN(C)CCCOc1ccc(-c2ccc3ncc4cnc(C5CCOCC5)n4c3c2)cc1 [Example 1, N,N-dimethyl-3-(4-(1-(tetrahydro-2H-pyran-4-yl)imidazo[1,5-a]quinoxalin-8-yl)phenoxy)propan-1-amine]	123	71	103	inhibition at 0.001 µM [1, 4]: 25%; inhibition at 0.1 µM ([1]; Conc. 100 nM, read-out: Inh % (inhibitory effect on ATM kinase activity)): 96%
Cc1nc(C2CCOCC2)n2c1cnc1ccc(-c3ccc(OCCCN(C)C)nc3)cc12 [Example 2, N,N-dimethyl-3-((5-(3-methyl-1-(tetrahydro-2H-pyran-4-yl)imidazo[1,5-a]quinoxalin-8-yl)pyridin-2-yl)oxy)propan-1-amine]	19.2	96	18.8	inhibition at 0.0001 µM [1, 7]: 45%; inhibition at 0.001 µM [1, 4]: 59%
Cc1nc(C2CCOCC2)n2c1cnc1ccc(-c3ccc(OCCCN(C)C)cc3)cc12 [Example 3, N,N-dimethyl-3-(4-(3-methyl-1-(tetrahydro-2H-pyran-4-yl)imidazo[1,5-a]quinoxalin-8-yl)phenoxy)propan-1-amine]	40.2	98	29.1	–
Cc1nc(C2CCOCC2)n2c1cnc1ccc(-c3ccc(OCCCN(C)C)c(F)c3)cc12 [Example 4, N,N-dimethyl-3-(2-fluoro-4-(3-methyl-1-(tetrahydro-2H-pyran-4-yl)imidazo[1,5-a]quinoxalin-8-yl)phenoxy)propan-1-amine]	41.1	97	38.9	–
Cc1nc(C2CCOCC2)n2c1cnc1ccc(-c3ccc(OCCCN(C)C)c(C(F)(F)F)c3)cc12 [Example 5, N,N-dimethyl-3-(4-(3-methyl-1-(tetrahydro-2H-pyran-4-yl)imidazo[1,5-a]quinoxalin-8-yl)-2-(trifluoromethyl)phenoxy)propan-1-amine]	19.5	99	21.9	inhibition at 0.0001 µM [1, 7]: 47%; inhibition at 0.001 µM [1, 4]: 97%
Cc1nc(C2CCOCC2)n2c1cnc1ccc(-c3ccc(N4CCC(N(C)C)CC4)c(F)c3)cc12 [Example 6, N,N-dimethyl-1-(2-fluoro-4-(3-methyl-1-(tetrahydro-2H-pyran-4-yl)imidazo[1,5-a]quinoxalin-8-yl)phenyl)piperidin-4-amine]	12.6	99	11.6	inhibition at 0.0001 µM [1, 7]: 33%; inhibition at 0.001 µM [1, 4]: 93%
Cc1nc(N2C[C@@H](C)O[C@@H](C)C2)n2c1cnc1ccc(-c3ccc(OCCc4c[nH]cn4)nc3)cc12 [Example 35, (2S,6R)-4-(8-(6-(2-(1H-imidazol-4-yl)ethoxy)pyridin-3-yl)-3-methylimidazo[1,5-a]quinoxalin-1-yl)-2,6-dimethylmorpholine]	564	–	419	–
CC(C)c1nc(N2C[C@@H](C)O[C@@H](C)C2)n2c1cnc1ccc(-c3ccc(OCCCN(C)C)nc3)cc12 [Example 42, 3-((5-(1-((2S,6R)-2,6-dimethylmorpholino)-3-isopropylimidazo[1,5-a]quinoxalin-8-yl)pyridin-2-yl)oxy)-N,N-dimethylpropan-1-amine]	852	–	533	–
C[C@@H]1CN(c2ncc3cnc4ccc(-c5ccc(N6CCC(N(C)C)CC6)nc5)cc4n23)C[C@H](C)O1 [Example 45, 1-(5-(1-((2S,6R)-2,6-dimethylmorpholino)imidazo[1,5-a]quinoxalin-8-yl)pyridin-2-yl)-N,N-dimethylpiperidin-4-amine]	20.9	–	18.8	–
Cc1nc(N2C[C@@H](C)O[C@@H](C)C2)n2c1cnc1ccc(-c3ccc(N(C)CCCN(C)C)nc3)cc12 [Example 47, N^1-(5-(1-((2S,6R)-2,6-dimethylmorpholino)-3-methylimidazo[1,5-a]quinoxalin-8-yl)pyridin-2-yl)-N^1,N^3,N^3-trimethylpropane-1,3-diamine]	17.9	–	126	–
Cc1nc(N2C[C@@H](C)O[C@@H](C)C2)n2c1cnc1ccc(-c3ccc(N4CCC(N5CCC5)CC4)nc3)cc12 [Example 52, (2S,6R)-4-(8-(6-(4-(azetidin-1-yl)piperidin-1-yl)pyridin-3-yl)-3-methylimidazo[1,5-a]quinoxalin-1-yl)-2,6-dimethylmorpholine]	5.5	–	6.1	–
Cc1nc(N2C[C@@H](C)O[C@@H](C)C2)n2c1cnc1ccc(-c3ccc(CCN4CCN(C)CC4)nc3)cc12 [Example 60, (2S,6R)-2,6-dimethyl-4-(3-methyl-8-(6-(2-(4-methylpiperazin-1-yl)ethyl)pyridin-3-yl)imidazo[1,5-a]quinoxalin-1-yl)morpholine]	> 1000	–	832	–
Cc1nc(N2C[C@@H](C)O[C@@H](C)C2)n2c1cnc1ccc(-c3ccc(OCCCN(C)C)c(F)c3)cc12 [Example 61, 3-(4-(1-((2S,6R)-2,6-dimethylmorpholino)-3-methylimidazo[1,5-a]quinoxalin-8-yl)-2-fluorophenoxy)-N,N-dimethylpropan-1-amine]	21.7	–	20.8	–
Cc1nc(N2C[C@@H](C)O[C@@H](C)C2)n2c1cnc1ccc(-c3ccc(OCCCN(C)C)c(Cl)c3)cc12 [Example 62, 3-(2-chloro-4-(1-((2S,6R)-2,6-dimethylmorpholino)-3-methylimidazo[1,5-a]quinoxalin-8-yl)phenoxy)-N,N-dimethylpropan-1-amine]	43	–	34	–

Reference: US12653830B2, “Substituted imidazoquinoxaline compounds and uses thereof” (Impact Therapeutics (Shanghai), Inc, priority 2019, dated 2026)
